Experimental data published in article PMC6234229, “The role of loops B and C in determining the potentiation of GABAA receptors by midazolam” (Pharmacology Research & Perspectives, 2018).

Experiments:
Assay in all cases: Midazolam potentiation of EC10 GABA currents, whole-cell patch clamp, HEK293T
Assay type in all cases: cell-based
[1] = target: T1, α1(H102R)β2γ2 GABAA receptor (Homo sapiens, UniProt P14867+P18507+P47870, H129R)
T1 construct: expressed in transfected cells; host or cells: HEK293T
T1 sequence (P14867 28-456 H129R): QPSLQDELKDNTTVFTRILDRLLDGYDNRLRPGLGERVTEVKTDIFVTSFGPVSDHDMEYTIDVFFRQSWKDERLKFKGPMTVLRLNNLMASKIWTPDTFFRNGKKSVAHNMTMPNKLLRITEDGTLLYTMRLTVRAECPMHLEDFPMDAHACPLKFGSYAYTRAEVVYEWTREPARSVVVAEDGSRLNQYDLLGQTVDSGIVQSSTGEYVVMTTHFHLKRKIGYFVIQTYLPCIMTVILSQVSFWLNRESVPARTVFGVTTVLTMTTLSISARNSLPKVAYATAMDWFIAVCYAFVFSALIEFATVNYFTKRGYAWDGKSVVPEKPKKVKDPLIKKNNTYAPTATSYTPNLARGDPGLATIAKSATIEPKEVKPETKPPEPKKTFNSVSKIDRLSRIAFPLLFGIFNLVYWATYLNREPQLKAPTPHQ
T1 sequence (P47870 25-512 limits assumed): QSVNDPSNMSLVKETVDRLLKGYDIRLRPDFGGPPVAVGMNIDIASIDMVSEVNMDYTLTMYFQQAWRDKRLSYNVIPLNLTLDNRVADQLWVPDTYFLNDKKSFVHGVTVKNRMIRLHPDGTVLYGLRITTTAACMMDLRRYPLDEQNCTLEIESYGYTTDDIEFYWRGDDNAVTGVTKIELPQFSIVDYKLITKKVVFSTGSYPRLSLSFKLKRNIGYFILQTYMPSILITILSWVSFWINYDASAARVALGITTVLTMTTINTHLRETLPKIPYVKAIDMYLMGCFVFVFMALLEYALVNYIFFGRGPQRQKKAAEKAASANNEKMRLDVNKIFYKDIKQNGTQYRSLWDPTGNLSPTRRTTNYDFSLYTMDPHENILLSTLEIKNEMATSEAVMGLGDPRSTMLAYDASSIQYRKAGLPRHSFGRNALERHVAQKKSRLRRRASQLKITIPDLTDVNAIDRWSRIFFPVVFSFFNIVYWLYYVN
T1 sequence (P18507 40-467 isoform P18507-1 limits assumed, stated change not applied): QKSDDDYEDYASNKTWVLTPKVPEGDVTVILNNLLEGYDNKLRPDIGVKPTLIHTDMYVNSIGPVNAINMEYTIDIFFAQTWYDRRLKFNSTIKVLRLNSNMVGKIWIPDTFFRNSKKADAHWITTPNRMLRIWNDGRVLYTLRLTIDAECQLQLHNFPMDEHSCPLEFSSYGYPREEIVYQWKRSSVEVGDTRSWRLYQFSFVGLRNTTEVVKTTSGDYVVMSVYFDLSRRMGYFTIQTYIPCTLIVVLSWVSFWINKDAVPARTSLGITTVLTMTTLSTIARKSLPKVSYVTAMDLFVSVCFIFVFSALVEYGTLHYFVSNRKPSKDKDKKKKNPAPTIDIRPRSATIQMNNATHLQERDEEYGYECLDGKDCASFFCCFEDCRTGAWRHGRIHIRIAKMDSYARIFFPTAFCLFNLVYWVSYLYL

[2] = target: T2, α1(T163P)β2γ2 GABAA receptor (Homo sapiens, UniProt P14867+P18507+P47870, T190P)
T2 construct: expressed in transfected cells; host or cells: HEK293T
T2 sequence (P14867 28-456 T190P): as the sequence (P14867 28-456 H129R) above, with R102H, T163P counted along it
T2 sequence (P47870 25-512 limits assumed): as the sequence (P47870 25-512 limits assumed) above
T2 sequence (P18507 40-467 isoform P18507-1 limits assumed, stated change not applied): as the sequence (P18507 40-467 isoform P18507-1 limits assumed, stated change not applied) above

[3] = target: T3, α2(H101R)β2γ2 GABAA receptor (Homo sapiens, UniProt P18507+P47869+P47870, H129R); details: for Midazolam potentiation (%): α2(H101R)
T3 construct: expressed in transfected cells; host or cells: HEK293T
T3 sequence (P47869 29-451 H129R): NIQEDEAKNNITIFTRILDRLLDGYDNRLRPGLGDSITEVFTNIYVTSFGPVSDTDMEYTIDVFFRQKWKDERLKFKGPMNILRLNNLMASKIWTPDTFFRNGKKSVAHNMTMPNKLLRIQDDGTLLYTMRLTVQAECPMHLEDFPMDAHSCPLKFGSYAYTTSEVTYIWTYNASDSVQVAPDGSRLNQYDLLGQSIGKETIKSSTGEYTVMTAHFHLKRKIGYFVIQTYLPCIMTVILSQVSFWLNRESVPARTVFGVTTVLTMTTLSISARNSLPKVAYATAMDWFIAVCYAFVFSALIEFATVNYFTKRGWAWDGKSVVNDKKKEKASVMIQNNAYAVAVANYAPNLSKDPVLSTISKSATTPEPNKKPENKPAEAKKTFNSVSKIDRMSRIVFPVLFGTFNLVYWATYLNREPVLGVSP
T3 sequence (P47870 25-512 limits assumed): as the sequence (P47870 25-512 limits assumed) above
T3 sequence (P18507 40-467 isoform P18507-1 limits assumed, stated change not applied): as the sequence (P18507 40-467 isoform P18507-1 limits assumed, stated change not applied) above

[4] = target: T4, α2(T162P)β2γ2 GABAA receptor (Homo sapiens, UniProt P18507+P47869+P47870, T190P)
T4 construct: expressed in transfected cells; host or cells: HEK293T
T4 sequence (P47869 29-451 T190P): as the sequence (P47869 29-451 H129R) above, with R101H, T162P counted along it
T4 sequence (P47870 25-512 limits assumed): as the sequence (P47870 25-512 limits assumed) above
T4 sequence (P18507 40-467 isoform P18507-1 limits assumed, stated change not applied): as the sequence (P18507 40-467 isoform P18507-1 limits assumed, stated change not applied) above

[5] = target: T5, α3(H126R)β2γ2 GABAA receptor (Homo sapiens, UniProt P18507+P34903+P47870, H154R)
T5 construct: expressed in transfected cells; host or cells: HEK293T
T5 sequence (P34903 29-492 H154R): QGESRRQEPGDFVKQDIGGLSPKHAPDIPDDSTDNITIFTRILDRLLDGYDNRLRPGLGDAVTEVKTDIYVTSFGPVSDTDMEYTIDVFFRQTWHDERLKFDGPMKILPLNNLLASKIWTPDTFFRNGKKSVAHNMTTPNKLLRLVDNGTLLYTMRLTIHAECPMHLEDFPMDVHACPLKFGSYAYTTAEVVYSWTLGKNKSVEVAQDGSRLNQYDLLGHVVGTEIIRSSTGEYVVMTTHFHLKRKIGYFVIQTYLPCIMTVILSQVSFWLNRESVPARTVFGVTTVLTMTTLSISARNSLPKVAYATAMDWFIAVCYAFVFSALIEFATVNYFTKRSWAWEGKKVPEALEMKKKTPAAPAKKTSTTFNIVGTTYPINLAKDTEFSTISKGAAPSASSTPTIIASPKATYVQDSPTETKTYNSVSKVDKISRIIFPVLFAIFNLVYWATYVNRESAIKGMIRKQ
T5 sequence (P47870 25-512 limits assumed): as the sequence (P47870 25-512 limits assumed) above
T5 sequence (P18507 40-467 isoform P18507-1 limits assumed, stated change not applied): as the sequence (P18507 40-467 isoform P18507-1 limits assumed, stated change not applied) above

[6] = target: T6, α3(S230I)β2γ2 GABAA receptor (Homo sapiens, UniProt P18507+P34903+P47870, S258I)
T6 construct: expressed in transfected cells; host or cells: HEK293T
T6 sequence (P34903 29-492 S258I): as the sequence (P34903 29-492 H154R) above, with R126H, S230I counted along it
T6 sequence (P47870 25-512 limits assumed): as the sequence (P47870 25-512 limits assumed) above
T6 sequence (P18507 40-467 isoform P18507-1 limits assumed, stated change not applied): as the sequence (P18507 40-467 isoform P18507-1 limits assumed, stated change not applied) above

[7] = target: T7, α4(R100H)β2γ2 GABAA receptor (Homo sapiens, UniProt P18507+P47870+P48169, R135H)
T7 construct: expressed in transfected cells; host or cells: HEK293T
T7 sequence (P48169 36-554 R135H): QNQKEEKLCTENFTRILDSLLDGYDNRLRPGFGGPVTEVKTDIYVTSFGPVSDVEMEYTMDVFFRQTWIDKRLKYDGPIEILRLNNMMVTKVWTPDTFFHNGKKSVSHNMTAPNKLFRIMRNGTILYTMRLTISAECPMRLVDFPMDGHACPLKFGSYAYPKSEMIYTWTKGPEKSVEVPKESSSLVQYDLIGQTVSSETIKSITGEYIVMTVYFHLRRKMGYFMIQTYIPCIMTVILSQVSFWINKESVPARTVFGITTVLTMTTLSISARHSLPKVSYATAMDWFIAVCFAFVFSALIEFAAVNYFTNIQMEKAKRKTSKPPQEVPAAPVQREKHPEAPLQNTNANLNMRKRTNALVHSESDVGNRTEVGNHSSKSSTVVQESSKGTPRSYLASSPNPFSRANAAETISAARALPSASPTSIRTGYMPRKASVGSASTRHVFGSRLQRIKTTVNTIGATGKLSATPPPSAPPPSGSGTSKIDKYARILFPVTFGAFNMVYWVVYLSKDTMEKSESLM
T7 sequence (P47870 26-474 isoform P47870-1 limits assumed, stated change not applied): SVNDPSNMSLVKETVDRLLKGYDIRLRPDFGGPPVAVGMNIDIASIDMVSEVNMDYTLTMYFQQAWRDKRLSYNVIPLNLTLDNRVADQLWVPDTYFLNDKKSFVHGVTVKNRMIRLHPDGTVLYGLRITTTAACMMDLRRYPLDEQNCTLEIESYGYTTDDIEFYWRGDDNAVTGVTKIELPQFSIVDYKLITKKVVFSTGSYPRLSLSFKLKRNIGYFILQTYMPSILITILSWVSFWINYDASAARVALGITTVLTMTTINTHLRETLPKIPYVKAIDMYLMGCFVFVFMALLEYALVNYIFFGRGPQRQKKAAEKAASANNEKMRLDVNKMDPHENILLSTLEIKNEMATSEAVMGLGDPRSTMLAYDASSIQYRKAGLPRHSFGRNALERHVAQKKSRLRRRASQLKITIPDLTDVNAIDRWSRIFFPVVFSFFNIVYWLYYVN
T7 sequence (P18507 40-467 isoform P18507-1 limits assumed, stated change not applied): as the sequence (P18507 40-467 isoform P18507-1 limits assumed, stated change not applied) above

SMILES: Cc1ncc2n1-c1ccc(Cl)cc1C(c1ccccc1F)=NC2 [midazolam]
- responsiveness to midazolam potentiation [1]: abolished the ability of receptors to respond to midazolam potentiation
- Midazolam potentiation (%) ([1]; 10 nM MDZ + EC10 GABA): 8.10 ± 3.48%
- Midazolam potentiation (%) ([1]; 50 nM MDZ + EC10 GABA): 13.07 ± 4.69%
- Midazolam potentiation (%) ([1]; 100 nM MDZ + EC10 GABA): 16.99 ± 4.42%
- Midazolam potentiation (%) ([1]; 500 nM MDZ + EC10 GABA): 26.78 ± 5.31%
- Midazolam potentiation (%) ([1]; 1000 nM MDZ + EC10 GABA): 28.87 ± 6.18%
- EC50 [2]: 61.1 ± 3.72 nM
- Midazolam potentiation (%) ([2]; 10 nM MDZ + EC10 GABA, α1(T163P)): 14.19 ± 4.15%
- Midazolam potentiation (%) ([2]; 50 nM MDZ + EC10 GABA, α1(T163P)): 49.96 ± 8.44%
- Midazolam potentiation (%) ([2]; 100 nM MDZ + EC10 GABA, α1(T163P)): 96.68 ± 15.00%
- Midazolam potentiation (%) ([2]; 500 nM MDZ + EC10 GABA, α1(T163P)): 124.27 ± 18.98%
- Midazolam potentiation (%) ([2]; 1000 nM MDZ + EC10 GABA, α1(T163P)): 123.00 ± 18.99%
- Max potentiation (%) ([2]; α1(T163P), Hill fit, midazolam 10-1000 nM + EC10 GABA): 127.7 ± 16.0 %
- Hill coefficient ([2]; α1(T163P), midazolam Hill fit): 2.113 ± 0.154
- Midazolam potentiation (%) ([3]; 10 nM MDZ + EC10 GABA): 9.85 ± 5.77%
- Midazolam potentiation (%) ([3]; 50 nM MDZ + EC10 GABA): 21.72 ± 8.75%
- Midazolam potentiation (%) ([3]; 100 nM MDZ + EC10 GABA): 25.17 ± 9.58%
- Midazolam potentiation (%) ([3]; 500 nM MDZ + EC10 GABA): 30.08 ± 10.31%
- Midazolam potentiation (%) ([3]; 1000 nM MDZ + EC10 GABA): 31.81 ± 11.79%
- responsiveness to midazolam potentiation ([3]; printed α2(H102R)): abolished the ability of receptors to respond to midazolam potentiation
- EC50 [4]: 42 ± 2.86 nM
- Midazolam potentiation (%) ([4]; 10 nM MDZ + EC10 GABA, α2(T162P)): 26.45 ± 4.06%
- Midazolam potentiation (%) ([4]; 50 nM MDZ + EC10 GABA, α2(T162P)): 81.24 ± 9.43%
- Midazolam potentiation (%) ([4]; 100 nM MDZ + EC10 GABA, α2(T162P)): 129.24 ± 14.94%
- Midazolam potentiation (%) ([4]; 500 nM MDZ + EC10 GABA, α2(T162P)): 156.21 ± 15.70%
- Midazolam potentiation (%) ([4]; 1000 nM MDZ + EC10 GABA, α2(T162P)): 150.36 ± 15.00%
- Max potentiation (%) ([4]; α2(T162P), Hill fit, midazolam 10-1000 nM + EC10 GABA): 158.2 ± 15.8%
- Hill coefficient ([4]; α2(T162P), midazolam Hill fit): 1.393 ± 0.073
- responsiveness to midazolam potentiation [5]: abolished the ability of receptors to respond to midazolam potentiation
- Midazolam potentiation (%) ([5]; 10 nM MDZ + EC10 GABA): 3.71 ± 1.31%
- Midazolam potentiation (%) ([5]; 50 nM MDZ + EC10 GABA): 3.63 ± 2.06%
- Midazolam potentiation (%) ([5]; 100 nM MDZ + EC10 GABA): 8.25 ± 1.64%
- Midazolam potentiation (%) ([5]; 500 nM MDZ + EC10 GABA): 7.92 ± 2.84%
- Midazolam potentiation (%) ([5]; 1000 nM MDZ + EC10 GABA): 10.78 ± 2.42%
- Midazolam potentiation (%) ([6]; 10 nM MDZ + EC10 GABA, α3(S230I)): 37.59 ± 4.12%
- Midazolam potentiation (%) ([6]; 50 nM MDZ + EC10 GABA, α3(S230I)): 139.86 ± 12.63%
- Midazolam potentiation (%) ([6]; 100 nM MDZ + EC10 GABA, α3(S230I)): 280.95 ± 24.73%
- Midazolam potentiation (%) ([6]; 500 nM MDZ + EC10 GABA, α3(S230I)): 413.27 ±37.70%
- Midazolam potentiation (%) ([6]; 1000 nM MDZ + EC10 GABA, α3(S230I)): 428.92 ± 38.09%
- EC50 ([6]; EC50 (nM), α3(S230I), midazolam potentiation of EC10 GABA): 73.6 nM
- enhancement of maximum midazolam potentiation relative to wildtype ([6]; α3(S230I) vs α3β2γ2): approximately 63%
- Max potentiation (%) ([6]; α3(S230I), Hill fit, midazolam 10-1000 nM + EC10 GABA): 436.0 ± 39.4%
- Hill coefficient ([6]; α3(S230I), midazolam Hill fit): 1.655 ± 0.061
- EC50 [7]: 74 ± 3.44 nM
- Midazolam potentiation (%) ([7]; 10 nM MDZ + EC10 GABA, α4(R100H)): 26.12 ± 4.95%
- Midazolam potentiation (%) ([7]; 50 nM MDZ + EC10 GABA, α4(R100H)): 54.65 ± 8.66%
- Midazolam potentiation (%) ([7]; 100 nM MDZ + EC10 GABA, α4(R100H)): 87.48 ± 13.68%
- Midazolam potentiation (%) ([7]; 500 nM MDZ + EC10 GABA, α4(R100H)): 117.13%
- Midazolam potentiation (%) ([7]; 1000 nM MDZ + EC10 GABA, α4(R100H)): 125.77%
- Max potentiation (%) ([7]; α4(R100H), Hill fit, midazolam 10-1000 nM + EC10 GABA): 113.8 ± 21.6%
- Hill coefficient ([7]; α4(R100H), midazolam Hill fit): 1.187 ± 0.150
